This is an account of results in ChEMBL document CHEMBL1201862, “PubChem BioAssay data set” (2004).

Each structure is given as a SMILES string.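 A five-concentration, 48-hour dose response in 96-well plates underlies each endpoint, interpolated linearly between surrounding concentrations. GI50 is the concentration that inhibits growth by half.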 Calls of active or inactive are those of the source. Cut-off read from the data, not from the text of the source: active = GI50 up to about 1.1 µM and inactive = higher.

Test systems include DMS-114; RXF 631; LXFL 529; XF498; SNB-78; DLD-1; HOP-18; KM-20L2; M19-MEL.
Holding throughout (experiment): growth of human tumour cells (NCI), 48 h

For the compound `O=C(O)C(SC(=S)c1ccc(C(=S)SC(C(=O)O)c2ccccc2)cc1)c1ccccc1` (centres undefined), the GI50 in the experiment on DMS-114 is 35 µM (inactive); in the experiment on RXF 631, > 100 µM (inactive); in the experiment with LXFL 529, 50.8 µM (inactive); in the experiment on XF498, > 100 µM (inactive); in the experiment with SNB-78, > 100 µM (inactive); in the experiment with DLD-1, > 100 µM (inactive).
With `O=C(O)C1CC2C=CCC(C2)C1` (centres undefined), the GI50 in the experiment on DMS-114, in the experiment with HOP-18, in the experiment with LXFL 529, with XF498, with SNB-78 and in the experiment with DLD-1 was > 100 µM (inactive) throughout. The GI50 in the experiment on KM-20L2 and in the experiment on M19-MEL was > 100 µM (inactive) each time.
For `COc1cc(C(=O)CC2OC(=O)C(Cl)=C2Cl)ccc1Cl` (centres undefined), the GI50 in the experiment on DMS-114, in the experiment with RXF 631, in the experiment with HOP-18, with LXFL 529, in the experiment with XF498 and in the experiment with SNB-78 was > 100 µM (inactive) in each case. For the same compound, the GI50 in the experiment with DLD-1, in the experiment on KM-20L2 and in the experiment with M19-MEL was > 100 µM (inactive) throughout.
Consider `c1ccc(COc2cccc3ccc[n+](Cc4ccccc4)c23)cc1`, for which the GI50 in the experiment with DMS-114 was 2.99 µM (inactive); in the experiment on RXF 631, 18.9 µM (inactive); in the experiment with HOP-18, 2.07 µM (inactive); in the experiment with LXFL 529, 3.62 µM (inactive); with XF498 it was 11.2 µM (inactive); with DLD-1, 11.5 µM (inactive). The GI50 in the experiment on KM-20L2 is 4.12 µM (inactive); in the experiment on M19-MEL, 3.59 µM (inactive).
`Cc1c2ccncc2c(C)c2c1[nH]c1ccc(OCCN(C)C)cc12`: the GI50 with HOP-18 is 0.598 µM (active); in the experiment on XF498, 0.807 µM (active); with SNB-78 it was 1.13 µM (inactive); in the experiment with DLD-1, 0.0893 µM (active); with KM-20L2, 0.113 µM (active); in the experiment on M19-MEL it was 0.582 µM (active).
Turning to `CSc1nc2c(nc(N)n2C2OCC(O)C(O)C2O)c(=O)[nH]1` (centres undefined), the GI50 in the experiment on DMS-114, with RXF 631, with HOP-18, in the experiment with LXFL 529, in the experiment with XF498 and in the experiment on SNB-78 was > 100 µM (inactive) throughout. Also, the GI50 in the experiment on DLD-1, with KM-20L2 and in the experiment with M19-MEL was > 100 µM (inactive) in each case.
For the compound `CC(C)(C)C(=O)N1C(C(=O)O)Cc2ccccc2[C@@H]1Cc1ccccc1` (some centres undefined), the GI50 in the experiment on DMS-114, in the experiment with RXF 631, in the experiment on HOP-18, with LXFL 529, in the experiment with XF498 and in the experiment on SNB-78 was > 100 µM (inactive) in each case. For the same compound, the GI50 in the experiment with KM-20L2 and in the experiment with M19-MEL was > 100 µM (inactive) throughout.
As for `C1=CCN(c2ccccc2)CC1`, the GI50 in the experiment with DMS-114 is 32.4 µM (inactive); in the experiment with RXF 631 it was > 100 µM (inactive); in the experiment on HOP-18 it was 63.5 µM (inactive); with LXFL 529, 18.6 µM (inactive); in the experiment with XF498 it was 17.1 µM (inactive); in the experiment on SNB-78 it was 29.8 µM (inactive). The GI50 in the experiment with DLD-1 was 15.5 µM (inactive); in the experiment on KM-20L2 it was 55.6 µM (inactive).
On to `CC(C)OP(=O)(OC(C)C)/C(F)=N/Nc1ccc([N+](=O)[O-])cc1`, for which the GI50 in the experiment on DMS-114, in the experiment with LXFL 529, in the experiment on XF498, in the experiment on DLD-1, with KM-20L2 and in the experiment on M19-MEL was > 100 µM (inactive) in each case.
For `O=c1oc2c(O)c(O)c(O)c3c(=O)oc4c(O)c(O)cc1c4c23` [FLAVELLAGIC ACID], the GI50 was 29.7 µM (inactive) in the experiment on DMS-114; > 100 µM (inactive) in the experiment on HOP-18; 73.1 µM (inactive) in the experiment with LXFL 529; > 100 µM (inactive) with SNB-78; > 100 µM (inactive) in the experiment with DLD-1; > 100 µM (inactive) in the experiment on KM-20L2. For the same compound, the GI50 in the experiment with M19-MEL was 9.79 µM (inactive).
Take `CC(C)=CCC/C(C)=C/CC/C(C)=C/C(O)c1ccccc1` (centres undefined): the GI50 with DMS-114 was 18.3 µM (inactive); with RXF 631, 18 µM (inactive); in the experiment on LXFL 529, 17.8 µM (inactive); in the experiment on SNB-78 it was 22.6 µM (inactive); in the experiment with DLD-1, 18.5 µM (inactive); in the experiment on KM-20L2, 21.3 µM (inactive). Further, the GI50 with M19-MEL was 18.3 µM (inactive).
As to `CC1SC2=NC3=C(c4ccccc4C3=O)C(c3ccccc3Cl)N2C1=O` (centres undefined), the GI50 in the experiment on DMS-114, with RXF 631, in the experiment with LXFL 529, in the experiment on XF498, in the experiment with DLD-1 and in the experiment with KM-20L2 was > 100 µM (inactive) in each case. Besides, in the experiment on M19-MEL, the GI50 is > 100 µM (inactive).
